Source: US8946144B2, “Phosphonated glycopeptide and lipoglycopeptide antibiotics and uses thereof for the prevention and treatment of bone and joint infections” (The Medicines Company, priority 2006, dated 2015)
≈ marks a conversion by molar mass, not a printed value.

Experiments:
[1] = test system: S. aureus strain ATCC13709; assay: Antibacterial susceptibility (MIC) in the presence of 50% serum; assay type: cell-based; conditions: S. aureus ATCC 13709
Description: (§1) Susceptibility of S. aureus strain ATCC13709 to the commercial antibiotics and synthesized compounds was determined by following the guidelines set by the Clinical and Laboratory Standards Institute (formerly the National Committee for Clinical Laboratory Standards) (M26-A). Compounds were diluted two-fold serially in either DMSO (Vancomycin 4, Oritavancin 8, compounds 10, 31, 33, 39, 44, 50, 60, 65), DMF (compounds 18 and 21) or in PBS (compound 6) and transferred to cation-adjusted Mueller Hinton broth (CAMHB; Becton Dickinson). 50 μL of compounds diluted in CAMHB was mixed with […] of bacteria diluted in CAMHB in 96-well microtiter plates. The final number of micro-organisms in the assay was 5×10^5 c.f.u. per mL and the final concentration of DMSO or DMF in the assay, if present, was 1.25%. Assays were set up in duplicate and incubated at 37° C. for 18 h. The concentration of compound that inhibited visible growth was reported as the minimum inhibitory concentration (MIC).
Susceptibility testing experiments were also carried out in the presence of serum. These experiments were carried out similar to the susceptibility testing with the following modifications. 75 μL of compounds diluted in CAMHB was mixed with 75 μL of bacteria diluted in 100% serum from any given source (commercial pooled mouse serum (MS) and human serum (HS), Equitech-Bio Inc.). The final concentration of animal serum in the assay was 50% and the concentrations of all other components were identical to those described for susceptibility testing.

[2] = Regeneration of parent drug from bone powder-bound prodrug; assay type: in vitro ADME; conditions: 24 h incubation, 37° C.
Description: Amounts of parent drug “regenerated” from the phosphonated prodrug were measured as follows. Washed bone powder-bound prodrugs from the above experiment were resuspended in 400 μL PBS+2% DMSO or in 400 μL 50% (v/v in PBS+2% DMSO) human or rat serum. The suspension was incubated overnight at 37° C., centrifuged at 13,000 rpm for 2 min and the supernatant was recovered. The amount of regenerated parent drug in the supernatant was determined by measurements using the microbiological assays that were previously described for the prodrugs themselves. The amount of released drug from prodrug was deduced from standard curves of known amounts of parent drug that were used as reference for each experiment. The amount of regenerated drug assessed by this bioassay was corroborated by MIC determination. The percentage of drug regenerated in PBS or serum after the overnight incubation (Table 2) was deduced from the difference between the amount of bound prodrug and the amount of regenerated drug (not shown).

[3] = test system: S. aureus strain ATCC13709; assay: Antibacterial susceptibility (MIC) in CAMHB; assay type: cell-based; conditions: S. aureus ATCC 13709; cation adjusted Mueller-Hinton broth; 37° C., 18 h
Description: as §1

Row | Structure (SMILES) | Minimum inhibitory concentration, CAMHB + 50% Human Serum [1] | Minimum inhibitory concentration, CAMHB + 50% Mouse Serum [1] | Minimum inhibitory concentration, CAMHB + 50% Rat Serum [1] | % Conversion (prodrug converted to parent drug) ([2]; 50% rat serum) | % Conversion (prodrug converted to parent drug) ([2]; PBS) | Minimum inhibitory concentration, CAMHB [3]
1 | CC(C)C[C@H](C(=O)N[C@H]1C(=O)N[C@@H](CC(N)=O)C(=O)N[C@H]2C(=O)N[C@H]3C(=O)N[C@H](C(=O)N[C@H](C(=O)O)c4cc(O)cc(O)c4-c4cc3ccc4O)[C@H](O[C@H]3C[C@](C)(N)[C@@H](O)[C@H](C)O3)c3ccc(c(Cl)c3)Oc3cc2cc(c3O[C@@H]2O[C@H](CO)[C@@H](O)[C@H](O)[C@H]2O[C@H]2C[C@](C)(NCc3ccc(-c4ccc(Cl)cc4)cc3)[C@@H](O)[C@H](C)O2)Oc2ccc(cc2Cl)[C@H]1O)N(C)C(=O)CCC(P(=O)(O)O)P(=O)(O)O [Compound 39] | >32 µg/mL | >32 µg/mL | >32 µg/mL | 0.9% | 0.01% | >32 µg/mL
2 | CC(C)C[C@H](C(=O)N[C@H]1C(=O)N[C@@H](CC(N)=O)C(=O)N[C@H]2C(=O)N[C@H]3C(=O)N[C@H](C(=O)N[C@H](C(=O)O)c4cc(O)cc(O)c4-c4cc3ccc4O)[C@H](O[C@H]3C[C@](C)(N)[C@@H](O)[C@H](C)O3)c3ccc(c(Cl)c3)Oc3cc2cc(c3O[C@@H]2O[C@H](CO)[C@@H](O)[C@H](O)[C@H]2O[C@H]2C[C@](C)(NCc3ccc(-c4ccc(Cl)cc4)cc3)[C@@H](O)[C@H](C)O2)Oc2ccc(cc2Cl)[C@H]1O)N(C)C(=O)OCOC(=O)CCCC(P(=O)(O)O)P(=O)(O)O [Compound 60] | >32 µg/mL | 32 µg/mL | 32 µg/mL | 0.05% | <LOD | 32 µg/mL (≈ 15.2 µM)
3 | CC(C)C[C@H](C(=O)N[C@H]1C(=O)N[C@@H](CC(N)=O)C(=O)N[C@H]2C(=O)N[C@H]3C(=O)N[C@H](C(=O)N[C@H](C(=O)O)c4cc(O)cc(O)c4-c4cc3ccc4O)[C@H](O[C@H]3C[C@](C)(N)[C@@H](O)[C@H](C)O3)c3ccc(c(Cl)c3)Oc3cc2cc(c3O[C@@H]2O[C@H](CO)[C@@H](O)[C@H](O)[C@H]2O[C@H]2C[C@](C)(NCc3ccc(-c4ccc(Cl)cc4)cc3)[C@@H](O)[C@H](C)O2)Oc2ccc(cc2Cl)[C@H]1O)N(C)C(=O)OCOC(=O)CCC(P(=O)(O)O)P(=O)(O)O.O=C(O)C(F)(F)F.O=C(O)C(F)(F)F [Compound 65] | 4 µg/mL | 0.5 µg/mL | 1 µg/mL | 26.4% | 0.2% | 8 µg/mL
